How the values were obtained:
[1] = target: Protein phosphatase 3 catalytic subunit alpha (Homo sapiens, UniProt Q08209); parameters: species or system Escherichia coli;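 also: inhibition of calcineurin (PP2B) enzyme activity, measured with DiFMUP as the substrate; in other assays of this panel Not Active means under 50% inhibition at 10 µM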
[2] = target: T1, Neuropeptide Y receptor type 2 (Homo sapiens, UniProt P49146); format: cell membranes, Membrane; details: kan-ts; also: in other assays of this panel Not Active means under 50% inhibition at 10 µM
T1 sequence (P49146 whole entry): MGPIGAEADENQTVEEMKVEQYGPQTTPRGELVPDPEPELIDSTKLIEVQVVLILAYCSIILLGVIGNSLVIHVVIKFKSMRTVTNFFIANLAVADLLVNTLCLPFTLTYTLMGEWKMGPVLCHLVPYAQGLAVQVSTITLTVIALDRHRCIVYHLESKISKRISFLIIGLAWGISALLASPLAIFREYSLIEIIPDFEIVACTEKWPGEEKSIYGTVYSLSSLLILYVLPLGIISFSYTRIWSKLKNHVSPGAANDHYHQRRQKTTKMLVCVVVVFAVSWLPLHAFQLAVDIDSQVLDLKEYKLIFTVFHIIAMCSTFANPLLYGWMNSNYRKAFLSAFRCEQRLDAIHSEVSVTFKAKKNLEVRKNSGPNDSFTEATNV

[3] = target: T2, Cytochrome P450 2A6 (Homo sapiens, UniProt P11509); details: bti-tn-5b1-4; also: in other assays of this panel Not Active means under 50% inhibition at 10 µM
T2 sequence (P11509 whole entry): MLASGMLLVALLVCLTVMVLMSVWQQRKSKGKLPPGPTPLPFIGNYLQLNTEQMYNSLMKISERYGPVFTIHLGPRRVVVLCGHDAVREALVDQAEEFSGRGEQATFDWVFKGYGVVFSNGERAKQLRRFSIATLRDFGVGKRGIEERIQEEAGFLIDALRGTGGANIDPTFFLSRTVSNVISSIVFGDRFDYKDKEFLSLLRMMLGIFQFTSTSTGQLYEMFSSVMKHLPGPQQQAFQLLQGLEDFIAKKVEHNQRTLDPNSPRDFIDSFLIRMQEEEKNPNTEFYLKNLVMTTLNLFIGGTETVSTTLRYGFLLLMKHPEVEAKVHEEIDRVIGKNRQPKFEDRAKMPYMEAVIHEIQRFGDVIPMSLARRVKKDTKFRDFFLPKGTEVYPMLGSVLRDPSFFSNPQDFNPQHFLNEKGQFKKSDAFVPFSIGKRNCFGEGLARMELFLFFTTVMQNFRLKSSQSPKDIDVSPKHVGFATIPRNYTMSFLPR

[4] = target: T3, 5-hydroxytryptamine receptor 1A (Rattus norvegicus, UniProt P19327); format: cell membranes, CHO-K1, Membrane; also: in other assays of this panel Not Active means under 50% inhibition at 10 µM
T3 sequence (P19327 whole entry): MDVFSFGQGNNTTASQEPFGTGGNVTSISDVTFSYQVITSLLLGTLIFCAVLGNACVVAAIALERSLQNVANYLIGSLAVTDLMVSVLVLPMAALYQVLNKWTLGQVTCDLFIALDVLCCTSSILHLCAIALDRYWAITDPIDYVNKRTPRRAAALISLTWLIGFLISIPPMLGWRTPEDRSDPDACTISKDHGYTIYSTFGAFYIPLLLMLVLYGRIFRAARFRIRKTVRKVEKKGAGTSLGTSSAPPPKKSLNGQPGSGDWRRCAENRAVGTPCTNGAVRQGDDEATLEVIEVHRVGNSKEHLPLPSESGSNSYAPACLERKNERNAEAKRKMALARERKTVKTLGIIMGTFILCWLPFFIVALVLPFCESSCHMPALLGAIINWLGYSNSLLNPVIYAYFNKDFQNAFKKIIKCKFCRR

[5] = target: Estrogen receptor beta (Homo sapiens, UniProt Q92731); details: sf9; also: in other assays of this panel Not Active means under 50% inhibition at 10 µM
[6] = target: D(3) dopamine receptor (Homo sapiens, UniProt P35462); assay: DRUGMATRIX: Dopamine D3 radioligand binding (ligand: [3H] Spiperone); format: cell membranes, CHO, Membrane
Chain of D(3) dopamine receptor (P35462 whole entry): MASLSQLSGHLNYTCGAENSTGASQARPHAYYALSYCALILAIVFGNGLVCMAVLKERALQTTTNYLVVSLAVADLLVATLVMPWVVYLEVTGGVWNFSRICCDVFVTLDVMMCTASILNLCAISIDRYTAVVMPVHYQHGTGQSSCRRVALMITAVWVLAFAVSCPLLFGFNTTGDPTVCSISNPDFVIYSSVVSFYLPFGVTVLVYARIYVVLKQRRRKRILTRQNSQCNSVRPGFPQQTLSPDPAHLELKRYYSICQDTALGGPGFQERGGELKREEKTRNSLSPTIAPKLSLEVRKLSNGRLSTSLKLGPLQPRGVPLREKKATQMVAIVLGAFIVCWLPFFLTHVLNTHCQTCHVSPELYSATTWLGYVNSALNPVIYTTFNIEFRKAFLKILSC

Chain of Estrogen receptor beta (Q92731 whole entry): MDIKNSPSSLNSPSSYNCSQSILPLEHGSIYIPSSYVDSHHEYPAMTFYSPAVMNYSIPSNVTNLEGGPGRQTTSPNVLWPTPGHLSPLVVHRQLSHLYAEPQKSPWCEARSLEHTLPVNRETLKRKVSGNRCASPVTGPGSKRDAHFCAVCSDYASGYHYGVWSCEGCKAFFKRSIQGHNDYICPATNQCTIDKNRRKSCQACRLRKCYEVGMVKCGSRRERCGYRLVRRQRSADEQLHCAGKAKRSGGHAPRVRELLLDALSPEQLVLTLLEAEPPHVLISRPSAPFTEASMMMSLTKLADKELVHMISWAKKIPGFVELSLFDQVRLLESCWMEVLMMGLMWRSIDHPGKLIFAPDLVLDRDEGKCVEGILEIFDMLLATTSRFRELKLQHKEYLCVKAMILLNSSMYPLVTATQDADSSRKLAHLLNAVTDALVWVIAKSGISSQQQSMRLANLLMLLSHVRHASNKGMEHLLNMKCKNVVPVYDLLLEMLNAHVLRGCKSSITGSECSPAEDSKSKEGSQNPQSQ

Which results are given for N[C@@H]1[C@H]2CN(c3nc4c(cc3F)c(=O)c(C(=O)O)cn4-c3ccc(F)cc3F)C[C@@H]12 [TROVAFLOXACIN]?
IC50 [1]: Not Active; IC50 [2]: Not Active; IC50 [3]: Not Active; Ki [3]: Not Active; IC50 ([4]; cho-k1): Not Active; IC50 [5]: Not Active; IC50 ([6]; cho): Not Active

How did the IC50 [1] turn out when CC[C@@H](CO)NC(=O)[C@@H]1C=C2c3cccc4[nH]cc(c34)C[C@H]2N(C)C1 [METHYLERGONOVINE] was run?
Its IC50 is “Not Active”.

And the IC50 [2]?
Its IC50 is “Not Active”.

What about the IC50 [3] of the same molecule?
The IC50 was “Not Active”.

And the Ki [3]?
Its Ki is “Not Active”.

What about the IC50 ([4]; read-out: IC50) of the same molecule?
The IC50 was 4.07 nM.

And the Ki ([4]; read-out: Ki)?
The Ki was 2.33 nM.

What about the IC50 [5] of the same molecule?
Its IC50 is “Not Active”.

And the IC50 ([6]; read-out: IC50)?
Its IC50 is 167 nM.

What about the Ki ([6]; read-out: Ki) of the same molecule?
Its Ki is 57 nM.

Which IC50 [1] does the source give for Cc1cccc(N(C)C(=S)Oc2ccc3ccccc3c2)c1 [TOLNAFTATE] here?
Its IC50 is “Not Active”.

What about the IC50 [2] of the same molecule?
Its IC50 is “Not Active”.

And the IC50 [3]?
Its IC50 is “Not Active”.

What about the Ki [3] of the same molecule?
Its Ki is “Not Active”.

What about the IC50 ([4]; cho-k1) of the same molecule?
Its IC50 is “Not Active”.

And the IC50 [5]?
The IC50 was “Not Active”.

And the IC50 ([6]; cho)?
Its IC50 is “Not Active”.

For Cc1oncc1C(=O)Nc1ccc(C(F)(F)F)cc1 [LEFLUNOMIDE], which IC50 [1] is on record?
Its IC50 is “Not Active”.

What about the IC50 [2] of the same molecule?
The IC50 was “Not Active”.

And the IC50 [3]?
Its IC50 is “Not Active”.

What about the Ki [3] of the same molecule?
Its Ki is “Not Active”.

What about the IC50 ([4]; cho-k1) of the same molecule?
Its IC50 is “Not Active”.

What about the IC50 [5] of the same molecule?
The IC50 was “Not Active”.

And the IC50 ([6]; cho)?
The IC50 was “Not Active”.

How did the IC50 [1] turn out when Cc1c(C)c2c(c(C)c1O)CCC(C)(COc1ccc(CC3SC(=O)NC3=O)cc1)O2 (stereo not given) [TROGLITAZONE] was run?
Its IC50 is “Not Active”.

What about the IC50 [2] of the same molecule?
Its IC50 is “Not Active”.

And the IC50 [3]?
The IC50 was “Not Active”.

What about the Ki [3] of the same molecule?
The Ki was “Not Active”.

What about the IC50 ([4]; cho-k1) of the same molecule?
The IC50 was “Not Active”.

What about the IC50 [5] of the same molecule?
The IC50 was “Not Active”.

What about the IC50 ([6]; cho) of the same molecule?
Its IC50 is “Not Active”.

CCCOc1ccccc1-c1nc2nn[nH]c2c(=O)[nH]1 [ZAPRINAST] was tested. Which IC50 [1] did it give?
Its IC50 is “Not Active”.

And the IC50 [2]?
The IC50 was “Not Active”.

What about the IC50 [3] of the same molecule?
Its IC50 is “Not Active”.

What about the Ki [3] of the same molecule?
The Ki was “Not Active”.

And the IC50 ([4]; cho-k1)?
Its IC50 is “Not Active”.

And the IC50 [5]?
The IC50 was “Not Active”.

What about the IC50 ([6]; cho) of the same molecule?
Its IC50 is “Not Active”.

Which results are given for COc1c(C)c2c(c(O)c1C/C=C(\C)CCC(=O)O)C(=O)OC2 [MYCOPHENOLIC ACID]?
IC50 [1]: Not Active; IC50 [2]: Not Active; IC50 [3]: Not Active; Ki [3]: Not Active; IC50 ([4]; cho-k1): Not Active; IC50 [5]: Not Active; IC50 ([6]; cho): Not Active

CSc1ccc(/C=C2/C(C)=C(CC(=O)O)c3cc(F)ccc32)cc1 [SULINDAC SULFIDE] was tested. Which IC50 [1] did it give?
Its IC50 is “Not Active”.

What about the IC50 [2] of the same molecule?
Its IC50 is “Not Active”.

What about the IC50 [3] of the same molecule?
Its IC50 is “Not Active”.

And the Ki [3]?
The Ki was “Not Active”.

What about the IC50 ([4]; cho-k1) of the same molecule?
The IC50 was “Not Active”.

And the IC50 [5]?
The IC50 was “Not Active”.

What about the IC50 ([6]; cho) of the same molecule?
Its IC50 is “Not Active”.

O=NN(CCCl)C(=O)NC1CCCCC1 [LOMUSTINE] was tested. Which IC50 [1] did it give?
Its IC50 is “Not Active”.

And the IC50 [2]?
Its IC50 is “Not Active”.

What about the IC50 [3] of the same molecule?
The IC50 was “Not Active”.

And the Ki [3]?
Its Ki is “Not Active”.

What about the IC50 ([4]; cho-k1) of the same molecule?
Its IC50 is “Not Active”.

What about the IC50 [5] of the same molecule?
Its IC50 is “Not Active”.

And the IC50 ([6]; cho)?
Its IC50 is “Not Active”.
